Molecules are shown by their SMILES. Like-named read-outs stand apart in the source and are kept apart here.

This passage reports IC50 results from patent US20260008770A1, “CBL-B INHIBITORS AND METHODS OF USES THEREOF” (Insilico Medicine IP Limited, priority 2022, published 2026).

The target in this test is Cbl-b protein (CBL-B, GST-Tag) (Homo sapiens (Human), UniProt Q13191). Nature of the test: HTRF based binding assay, affinity to Cbl-b protein.
Sequence of Cbl-b protein (CBL-B, GST-Tag) (Q13191 whole entry): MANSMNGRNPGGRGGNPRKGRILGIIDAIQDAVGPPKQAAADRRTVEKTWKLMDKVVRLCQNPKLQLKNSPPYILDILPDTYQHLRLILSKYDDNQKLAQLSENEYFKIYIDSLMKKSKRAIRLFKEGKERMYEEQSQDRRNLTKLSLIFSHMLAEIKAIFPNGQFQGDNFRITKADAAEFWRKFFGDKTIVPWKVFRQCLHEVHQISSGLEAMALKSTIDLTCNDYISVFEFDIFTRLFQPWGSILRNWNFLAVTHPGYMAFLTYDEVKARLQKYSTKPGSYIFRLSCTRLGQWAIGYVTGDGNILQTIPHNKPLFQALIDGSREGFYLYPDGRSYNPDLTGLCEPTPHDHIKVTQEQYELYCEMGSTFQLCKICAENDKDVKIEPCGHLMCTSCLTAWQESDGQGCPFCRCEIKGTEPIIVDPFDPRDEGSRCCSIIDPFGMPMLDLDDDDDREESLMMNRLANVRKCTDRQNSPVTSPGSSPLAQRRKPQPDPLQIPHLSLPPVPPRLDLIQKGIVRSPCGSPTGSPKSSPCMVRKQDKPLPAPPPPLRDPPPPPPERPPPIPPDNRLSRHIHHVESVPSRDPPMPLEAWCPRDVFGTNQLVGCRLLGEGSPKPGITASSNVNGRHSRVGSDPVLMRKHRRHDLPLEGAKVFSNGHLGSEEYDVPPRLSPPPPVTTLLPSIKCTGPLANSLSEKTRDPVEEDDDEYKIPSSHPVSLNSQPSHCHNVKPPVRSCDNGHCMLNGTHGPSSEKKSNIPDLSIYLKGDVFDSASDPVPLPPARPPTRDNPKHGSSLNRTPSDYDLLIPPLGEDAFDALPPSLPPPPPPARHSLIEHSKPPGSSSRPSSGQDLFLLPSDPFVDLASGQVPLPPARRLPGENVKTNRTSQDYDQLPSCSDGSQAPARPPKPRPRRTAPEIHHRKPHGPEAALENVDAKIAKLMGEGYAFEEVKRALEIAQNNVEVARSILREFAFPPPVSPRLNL

Broadly, the IC50 is the midpoint of a concentration-inhibition curve. Molecule `CC1CC(c2cccc(-n3[nH]c4c(C(F)(F)F)cc(CN5CCC[C@H](C)C5)cc4c3=O)c2)(c2nncn2C)C1` (stereo partly shown) [Example 73] gave an IC50 (HTRF binding, CBL-B (GST-Tag), fluorescence labeled Cbl-b binding probe) of over 1000 nM.

Regarding `CC1CC(c2cccc(NC(=O)c3cc(CN4CCC[C@H](C)C4)cc4c3OC(F)(F)O4)c2)(c2nncn2C)C1` (stereo partly shown) [Example 25], the IC50 lay within 20 to 50 nM.

Regarding `C[C@H]1CCCN(Cc2cc3c(=O)n(-c4cc([C@]5(c6nncn6C)C[C@@H](C)C5)cc(OCF)n4)cnc3cn2)C1` [Example 99], the IC50 was under 20 nM.

`CC1CC(c2cccc(-n3cc4c(C(F)(F)F)cc(CN5C[C@@H](C)C[C@H](C)C5)cc4n3)c2)(c2nncn2C)C1` (stereo partly shown) [Example 86] had a half-maximal inhibitory concentration (IC50) of 50 to 500 nM.
